Test results reported in patent US11866450B2, “Modulators of Cystic Fibrosis Transmembrane Conductance regulator, pharmaceutical compositions, methods of treatment, and process for making the modulators” (priority 2018, dated 2024).

Target: CFTR-mediated chloride transport (Homo sapiens, UniProt P13569)
Type: cell-based
Conditions: enteroid cells incubated with test compound 18-24 hours, acute 10 μM forskolin and 300 nM Compound III; for Max. Activity: % of chloride transport with 3 μM Compound A, 3 μM Compound II and 300 nM acute Compound III triple combination control
How it was run: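 Human intestinal enteroid cells incubated with compound 18–24 h at 37° C., then membrane potential dye (FLIPR) read 15 min after chloride-free stimulation with 10 μM forskolin, 100 μM IBMX and 300 nM Compound III. AUC expressed as % of triple-combination control (3 μM Compound A, 3 μM Compound II, 300 nM Compound III).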

Chain of CFTR-mediated chloride transport (P13569 whole entry, looked up): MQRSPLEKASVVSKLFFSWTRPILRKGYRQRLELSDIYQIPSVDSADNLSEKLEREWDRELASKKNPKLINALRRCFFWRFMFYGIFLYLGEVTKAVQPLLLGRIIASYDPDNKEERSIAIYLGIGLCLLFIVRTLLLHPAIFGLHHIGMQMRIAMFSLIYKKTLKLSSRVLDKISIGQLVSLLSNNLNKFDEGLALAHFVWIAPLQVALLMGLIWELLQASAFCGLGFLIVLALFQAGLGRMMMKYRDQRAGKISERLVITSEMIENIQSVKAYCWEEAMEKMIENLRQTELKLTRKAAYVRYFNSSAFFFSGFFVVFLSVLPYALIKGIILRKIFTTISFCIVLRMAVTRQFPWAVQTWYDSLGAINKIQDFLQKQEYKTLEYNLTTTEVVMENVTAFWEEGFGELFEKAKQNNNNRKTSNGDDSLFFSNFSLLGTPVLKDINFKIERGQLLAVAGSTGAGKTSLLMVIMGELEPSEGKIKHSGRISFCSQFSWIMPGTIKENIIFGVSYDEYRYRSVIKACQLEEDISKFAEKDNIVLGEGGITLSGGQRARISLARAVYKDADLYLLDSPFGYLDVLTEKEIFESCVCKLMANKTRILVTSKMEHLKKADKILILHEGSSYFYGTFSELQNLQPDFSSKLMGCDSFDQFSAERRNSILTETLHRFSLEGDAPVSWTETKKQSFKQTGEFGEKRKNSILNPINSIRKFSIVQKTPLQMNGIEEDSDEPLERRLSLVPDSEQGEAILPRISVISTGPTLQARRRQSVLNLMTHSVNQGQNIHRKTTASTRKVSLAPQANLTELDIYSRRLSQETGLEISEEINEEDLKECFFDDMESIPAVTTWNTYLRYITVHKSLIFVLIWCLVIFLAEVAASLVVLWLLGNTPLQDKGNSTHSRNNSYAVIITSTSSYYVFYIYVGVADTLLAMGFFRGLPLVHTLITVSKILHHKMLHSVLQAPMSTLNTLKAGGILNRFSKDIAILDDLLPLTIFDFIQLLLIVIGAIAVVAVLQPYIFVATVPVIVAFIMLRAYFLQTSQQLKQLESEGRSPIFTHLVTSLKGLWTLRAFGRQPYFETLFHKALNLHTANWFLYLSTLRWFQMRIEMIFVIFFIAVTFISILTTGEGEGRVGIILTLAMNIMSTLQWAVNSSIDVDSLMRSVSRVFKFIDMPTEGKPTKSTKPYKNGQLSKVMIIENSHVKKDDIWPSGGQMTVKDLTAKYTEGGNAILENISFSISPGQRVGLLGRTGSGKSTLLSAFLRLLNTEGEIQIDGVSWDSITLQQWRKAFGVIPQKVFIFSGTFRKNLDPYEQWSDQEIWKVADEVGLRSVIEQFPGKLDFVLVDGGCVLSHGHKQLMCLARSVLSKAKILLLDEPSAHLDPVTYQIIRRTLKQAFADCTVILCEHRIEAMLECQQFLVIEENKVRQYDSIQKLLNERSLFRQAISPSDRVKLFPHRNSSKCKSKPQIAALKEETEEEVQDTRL

SMILES	EC50	Max. Activity
CC(C)(C)CCC1CCN(c2ccc3c(n2)N2C[C@H](CCCn4ccc(n4)S(=O)(=O)NC3=O)CC2(C)C)C1=O (stereo in doubt) [Compound 184, 4-[3-(3,3-dimethylbutyl)-2-oxopyrrolidin-1-yl]-20,20-dimethyl-10λ^6-thia-1,3,9,14,22-pentaazatetracyclo[16.2.1.111,14.02,7]docosa-2,4,6,11(22),12-pentaene-8,10,10-trione]	1000 to 3000 nM	+ (+ is <30%)
CC1(C)C[C@H]2CCCCn3cc(cn3)S(=O)(=O)NC(=O)c3ccc(-n4ccc(OCCC5(C(F)(F)F)CC5)n4)nc3N1C2 (single isomer, unassigned) [Compound 135, 21,21-dimethyl-4-(3-{2-[1-(trifluoromethyl)cyclopropyl]ethoxy}-1H-pyrazol-1-yl)-10λ^6-thia-1,3,9,13,14-pentaazatetracyclo[17.2.1.111,14.02,7]tricosa-2,4,6,11(23),12-pentaene-8,10,10-trione]	< 1000 nM	+++ (+++ is >60%)
CC1(CC2CCN(c3ccc4c(n3)N3C[C@@H](CCCNc5cccc(n5)S(=O)(=O)NC4=O)CC3(C)C)C2=O)CCCCC1 (stereo partly drawn) [Compound 101, (14S)-12,12-dimethyl-8-{3-[(1-methylcyclohexyl)methyl]-2-oxopyrrolidin-1-yl}-2λ^6-thia-3,9,11,18,23-pentaazatetracyclo[17.3.1.111,14.05,10]tetracosa-1(22),5,7,9,19(23),20-hexaene-2,2,4-trione]	< 1000 nM	++ (++ is 30-60%)
Cc1nn2cc1S(=O)(=O)NC(=O)c1ccc(-n3ccc(OCC(C)(C)C(F)(F)F)n3)nc1N1C[C@H](CCC2)CC1(C)C (single isomer, unassigned) [Compound 290, 12,20,20-trimethyl-4-[3-(3,3,3-trifluoro-2,2-dimethylpropoxy)-1H-pyrazol-1-yl]-10λ^6-thia-1,3,9,13,14-pentaazatetracyclo[16.2.1.111,14.02,7]docosa-2,4,6,11(22),12-pentaene-8,10,10-trione]	> 3000 nM	+ (+ is <30%)
CC(C)(C)CCCC1CCN(c2ccc3c(n2)N2C[C@@H](CCCNc4cccc(n4)S(=O)(=O)NC3=O)CC2(C)C)C1=O (stereo partly drawn) [Compound 102, (14S)-8-[3-(4,4-Dimethylpentyl)-2-oxopyrrolidin-1-yl]-12,12-dimethyl-2λ^6-thia-3,9,11,18,23-pentaazatetracyclo[17.3.1.111,14.05,10]tetracosa-1(22),5,7,9,19(23),20-hexaene-2,2,4-trione]	< 1000 nM	+++ (+++ is >60%)
CC1(C)C[C@@H]2CCCNc3cccc(n3)S(=O)(=O)NC(=O)c3ccc(N4CCN(CCC5(C(F)(F)F)CC5)C4=O)nc3N1C2 [Compound 211, (14S)-12,12-Dimethyl-8-(2-oxo-3-{2-[1-(trifluoromethyl)cyclopropyl]ethyl}imidazolidin-1-yl)-2λ^6-thia-3,9,11,18,23-pentaazatetracyclo[17.3.1.111,14.05,10]tetracosa-1(22),5,7,9,19(23),20-hexaene-2,2,4-trione]	< 1000 nM	++ (++ is 30-60%)
C[C@@H]1CC[C@H]2CN(c3nc(N4CCN(CCC(C)(C)C)C4=O)ccc3C(=O)NS(=O)(=O)c3cccc(n3)N1)C(C)(C)C2 (single isomer, unassigned) [Compound 219, 8-[3-(3,3-dimethylbutyl)-2-oxoimidazolidin-1-yl]-12,12,17-trimethyl-2λ^6-thia-3,9,11,18,23-pentaazatetracyclo[17.3.1.111,14.05,10]tetracosa-1(22),5,7,9,19(23),20-hexaene-2,2,4-trione]	< 1000 nM	++ (++ is 30-60%)
CC1(C)C[C@H]2CCCn3ccc(n3)S(=O)(=O)NC(=O)c3ccc(N4CC[C@H](CCCC5(C(F)(F)F)CC5)C4=O)nc3N1C2 (single isomer, unassigned) [Compound 181, 20,20-Dimethyl-4-(2-oxo-3-{3-[1-(trifluoromethyl)cyclopropyl]propyl}pyrrolidin-1-yl)-10λ^6-thia-1,3,9,14,22-pentaazatetracyclo[16.2.1.111,14.02,7]docosa-2,4,6,11(22),12-pentaene-8,10,10-trione]	1000 to 3000 nM	++ (++ is 30-60%)
CC1(C)C[C@H]2CCCCn3ccc(n3)S(=O)(=O)NC(=O)c3ccc(-n4ccc(OCCC5(C(F)(F)F)CC5)n4)nc3N1C2 (single isomer, unassigned) [Compound 45, 21,21-dimethyl-4-(3-{2-[1-(trifluoromethyl)cyclopropyl]ethoxy}-1H-pyrazol-1-yl)-10λ^6-thia-1,3,9,14,23-pentaazatetracyclo[17.2.1.111,14.02,7]tricosa-2,4,6,11(23),12-pentaene-8,10,10-trione]	< 1000 nM	+++ (+++ is >60%)
CC1(C)C[C@@H]2CCCNc3cccc(n3)S(=O)(=O)NC(=O)c3ccc(-n4ccc(OC[C@@H](O)C5C6(CC6)C56CC6)n4)nc3N1C2 (single isomer, unassigned) [Compound 293]	< 1000 nM	+++ (+++ is >60%)
CC1(C)C[C@@H]2CCCNc3cccc(n3)S(=O)(=O)NC(=O)c3ccc(-n4ccc(OCC(=O)C5C6(CC6)C56CC6)n4)nc3N1C2 [Compound 258, (14S)-8-[3-(2-{Dispiro[2.0.2.1]heptan-7-yl}-2-oxoethoxy)-1H-pyrazol-1-yl]-12,12-dimethyl-2λ^6-thia-3,9,11,18,23-pentaazatetracyclo[17.3.1.111,14.05,10]tetracosa-1(22),5,7,9,19(23),20-hexaene-2,2,4-trione]	< 1000 nM	+++ (+++ is >60%)
Cc1c2cnn1CCC[C@@H]1CN(c3nc(-n4ccc(OCCC5(C(F)(F)F)CC5)n4)ccc3C(=O)NS2(=O)=O)C(C)(C)C1 (single isomer, unassigned) [Compound 111]	< 1000 nM	+++ (+++ is >60%)
CC1(C)C[C@@H]2CCCn3ccc(n3)S(=O)(=O)NC(=O)c3ccc(-n4ccc(OCCC5(C(F)(F)F)CC5)n4)nc3N1C2 [Compound 85, (18S)-20,20-dimethyl-4-(3-{2-[1-(trifluoromethyl)cyclopropyl]ethoxy}-1H-pyrazol-1-yl)-10λ^6-thia-1,3,9,14,22-pentaazatetracyclo[16.2.1.111,14.02,7]docosa-2,4,6,11(22),12-pentaene-8,10,10-trione]	< 1000 nM	+++ (+++ is >60%)
CC1(C)C[C@@H]2CCCNc3cccc(n3)S(=O)(=O)NC(=O)c3ccc(N4CCN(C5CCCCC5)C4=O)nc3N1C2 [Compound 200, (14S)-8-(3-cyclohexyl-2-oxoimidazolidin-1-yl)-12,12-dimethyl-2λ^6-thia-3,9,11,18,23-pentaazatetracyclo[17.3.1.111,14.05,10]tetracosa-1(22),5,7,9,19(23),20-hexaene-2,2,4-trione]	< 1000 nM	+ (+ is <30%)
CC1(C)C[C@@H]2CCCNc3cccc(n3)S(=O)(=O)NC(=O)c3ccc(N4CCN(CC(C)(C)C(F)(F)F)C4=O)nc3N1C2 [Compound 225, (14S)-12,12-dimethyl-8-[2-oxo-3-(3,3,3-trifluoro-2,2-dimethylpropyl)imidazolidin-1-yl]-2λ^6-thia-3,9,11,18,23-pentaazatetracyclo[17.3.1.111,14.05,10]tetracosa-1(22),5,7,9,19(23),20-hexaene-2,2,4-trione]	< 1000 nM	++ (++ is 30-60%)
